Laboratory results published in publication PMC3258152 (Nucleic Acids Research, 2011).

Biological target: T1, CkoPE (Candidatus Korarchaeum cryptofilum, UniProt B1L4V6)
T1 sequence (B1L4V6 1-117): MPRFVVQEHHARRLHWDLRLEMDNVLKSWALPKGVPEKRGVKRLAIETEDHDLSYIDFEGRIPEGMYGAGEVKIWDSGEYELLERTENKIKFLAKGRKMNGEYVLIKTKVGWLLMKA
Assay: […]'-resection of […]-labelled D22R2 single strand, urea-PAGE
Assay type: biochemical

Q: With `O=P(O)(O)O` [phosphate] as the compound, how does the IC50 read?
A: ~50 mM
